Experimental data from patent publication US8507409B2, “Synergistic combination of a glyphosate compound and DMITS” (Dow Global Technologies LLC, priority 2010, dated 2013).

Assays:
Format in all cases: cell-based
[1] = test system: Gloeocapsa sp. and Oscillatoria sp.; assay: Algal efficacy, dry paint film (Modified ASTM 5589), Gs + Os pool; details: Os-Gl; for Total conc in pppm: minimum inhibitory concentration chosen for SI calculation, total actives in paint
Description: (§1) Each sample was tested in duplicate.
(§2) In this synergy study, three pool of mixed algae were prepared as the test inoculum, Gloeocapsa sp. and Oscillatoria sp. a mix of cyanobacteria grown on BG-11 media; Chlorella sp., Chlorella kessleri, and Nostoc commune are unicellular chlorphytes that were mixed and grown on Bold media; Trentepohlia aurea, Tretepohlia odorata, and Calotrix parientina are filamentous algae that were mixed and grown on Bold media.
(§3) The plates were incubated at room temp (25° C.-26° C.) with cyclic exposure to light (OTT-Lite model # OTL4012P, 40 Watt, 26KLumen) and dark phases, for a period of four weeks. The total area covered was evaluated at the end of each week according to percent area covered in 5% increments.
(§4) The SI is calculated based on F. C.
(§5) SI value of <1 in the formula indicates a synergism of the blended biocides exists.
(§6) NE=no end point at the concentration tested that will meet the percent inhibition criteria set in each SI calculation.

[2] = test system: Chlorella sp., Chlorella kessleri, and Nostoc commune; assay: Algal efficacy, dry paint film (Modified ASTM 5589), Cs + Ck + Nc pool; details: Ch-No; for Total conc in pppm: minimum inhibitory concentration chosen for SI calculation, total actives in paint
Description: as §1, §2, §3, §4, §5, §6

[3] = test system: Aspergillus niger mixed with Penicillium funiculosum; assay: Fungal efficacy, dry paint film (Modified ASTM 5590), An + Pf pool; details: for Total conc in pppm: minimum inhibitory concentration chosen for SI calculation, total actives in paint
Description: as §1, §4, §5, §6

[4] = test system: Trentepohlia aurea, Tretepohlia odorata, and Calotrix parientina; assay: Algal efficacy, dry paint film (Modified ASTM 5589), Cp + To + Ta pool; details: Cal-Tre; for Total conc in pppm: minimum inhibitory concentration chosen for SI calculation, NE=no end point
Description: as §1, §2, §3, §4, §5, §6

[5] = at the total conc listed for the same ratio

Molecule	% Inhibition [1, 5]	Total conc in pppm [1]	% Inhibition [2, 5]	Total conc in pppm [2]	% Inhibition [3, 5]	Total conc in pppm [3]	% Inhibition [4, 5]	Total conc in pppm [4]
Cc1ccc(S(=O)(=O)C(I)I)cc1 [DMITS, diiodomethyl-p-tolylsulfone]	20%	3300 pppm	80%	2475 pppm	80%	825 pppm	20%	3300 pppm
zinc glyphosate		412.5 pppm		412.5 pppm		412.5 pppm		412.5 pppm
